BigSolDB 2.1

Nc1nc(N)nc(-c2ccncc2)n1
solubility (mole fraction)
Conditions | 288.15 K | 293.15 K | 298.15 K | 303.15 K | 308.15 K | 313.15 K | 318.15 K
in THF | 0.00308 | 0.00334 | 0.00362 | 0.0039 | 0.00407 | 0.00433 | 0.00455
in ethanol | 0.000734 | 0.000813 | 0.000925 | 0.0011 | 0.00122 | 0.00137 | 0.00159
in isopropanol | 0.000426 | 0.000506 | 0.000641 | 0.000787 | 0.000925 | 0.00116 | 0.00142
in methanol | 0.00138 | 0.00149 | 0.0017 | 0.00198 | 0.00214 | 0.00237 | 0.00269
in n-propanol | 0.000641 | 0.00072 | 0.00083 | 0.000942 | 0.00111 | 0.00128 | 0.00153
